Results taken from article PMC10150354, “Linearization of the Brevicidine and Laterocidine Lipopeptides Yields Analogues That Retain Full Antibacterial Activity” (Journal of Medicinal Chemistry, 2023).
In brackets after ≈: the same amount, converted by molar mass. Where a SMILES comes first, the peptide text is derived from it. [ ]: non-standard residue; d: D form. The star is where a group is joined. ξ: configuration not given here. Octanoyl(7-Me) = CC(C)CCCCCC(=O)*; Hexanoyl(4ξ-Me) = CCC(C)CCC(=O)*; dOrn = NCCC[C@@H](N)C(=O)O; Orn = NCCC[C@H](N)C(=O)O; Dap = NC[C@H](N)C(=O)O; OAll = C=CCO*

Assays:
E. coli (MCR-1) = assay type: cell-based, Escherichia coli; settings: microbroth dilution per CLSI, MHB, 18 h at 37 °C, visual inspection, three technical replicates, E. coli 25922 carrying mcr-1
How it was run: (§1)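 CLSI broth microdilution in MHB, polypropylene plates; log-phase bacteria (OD600 ~0.5, grown in TSB, with kanamycin for the E. coli ATCC 25922 MCR-1 strain) added at 2 × 10^5 CFU/mL. Read visually after 18 h at 37 °C with shaking; MIC = lowest concentration preventing visible growth, three technical replicates.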

E. coli ATCC 25922 = assay type: cell-based, Escherichia coli; settings: for Antibacterial activity (MIC) E. coli ATCC 25922: microbroth dilution per CLSI, MHB, 18 h at 37 °C, visual inspection, three technical replicates; for MIC (µg/mL) against E. coli (ATCC 25922): (Supplement 2)
How it was run: as §1

K. pneumoniae ATCC 13883 = assay type: cell-based, Klebsiella pneumoniae; settings: microbroth dilution per CLSI, MHB, 18 h at 37 °C, visual inspection, three technical replicates
How it was run: as §1

A. baumannii ATCC 17961 = assay type: cell-based, Acinetobacter baumannii; settings: microbroth dilution per CLSI, MHB, 18 h at 37 °C, visual inspection, three technical replicates
How it was run: as §1

P. aeruginosa PAO1 = assay type: cell-based, Pseudomonas aeruginosa; settings: microbroth dilution per CLSI, MHB, 18 h at 37 °C, visual inspection, three technical replicates
How it was run: as §1

S. aureus USA300 = assay type: cell-based, Staphylococcus aureus; settings: microbroth dilution per CLSI, MHB, 18 h at 37 °C, visual inspection, three technical replicates
How it was run: as §1

Row | SMILES | Antibacterial activity (MIC) E. coli (MCR-1) (E. coli (MCR-1)) [µg/mL] | Antibacterial activity (MIC) E. coli ATCC 25922 (E. coli ATCC 25922) [µg/mL] | Antibacterial activity (MIC) K. pneumoniae ATCC 13883 (K. pneumoniae ATCC 13883) [µg/mL] | Antibacterial activity (MIC) A. baumannii ATCC 17961 (A. baumannii ATCC 17961) [µg/mL] | Antibacterial activity (MIC) P. aeruginosa PAO1 (P. aeruginosa PAO1) [µg/mL] | Antibacterial activity (MIC) S. aureus USA300 (S. aureus USA300) [µg/mL] | MIC (µg/mL) against E. coli (ATCC 25922) (E. coli ATCC 25922) [µg/mL]
1 | CC(C)CCCCCC(=O)N[C@H](CO)C(=O)N[C@H](Cc1ccc(O)cc1)C(=O)N[C@H](Cc1c[nH]c2ccccc12)C(=O)N[C@H](CCCN)C(=O)N[C@@H](CCCN)C(=O)NCC(=O)N[C@H](CCCN)C(=O)N[C@@H](Cc1c[nH]c2ccccc12)C(=O)N[C@H](C(N)=O)[C@@H](C)O [Δ10–13LL-NH2 (14)] ({Octanoyl(7-Me)}-[dS][dY][dW][dOrn][Orn]G[dOrn]WT-NH2) | 32 | >32 | >32 | 32 | >32 | >32 | –
2 | CC[C@H](C)[C@H](NC(=O)[C@@H](NC(=O)[C@H](Cc1c[nH]c2ccccc12)NC(=O)[C@@H](CCCN)NC(=O)CNC(=O)[C@H](CCCN)NC(=O)[C@@H](CCCN)NC(=O)[C@@H](C)NC(=O)[C@@H](Cc1ccc(O)cc1)NC(=O)[C@@H](CO)NC(=O)CCCCCC(C)C)[C@@H](C)O)C(=O)N[C@@H](CC(N)=O)C(=O)NCC(=O)NCC(N)=O [LL(D-Ala3)-NH2 (31)] ({Octanoyl(7-Me)}-[dS][dY][dA][dOrn][Orn]G[dOrn]WTINGG-NH2) | >32 | >32 | >32 | >32 | >32 | >32 | –
3 | CC[C@H](C)[C@H](NC(=O)[C@H](C)NC(=O)[C@H](Cc1c[nH]c2ccccc12)NC(=O)[C@@H](CCCN)NC(=O)CNC(=O)[C@H](CCCN)NC(=O)[C@@H](CCCN)NC(=O)[C@@H](Cc1c[nH]c2ccccc12)NC(=O)[C@@H](Cc1ccc(O)cc1)NC(=O)[C@@H](CO)NC(=O)CCCCCC(C)C)C(=O)N[C@@H](CC(N)=O)C(=O)NCC(=O)NCC(N)=O [LL(Ala9)-NH2 (37)] ({Octanoyl(7-Me)}-[dS][dY][dW][dOrn][Orn]G[dOrn]WAINGG-NH2) | 4 to 8 | 4 | 4 | 8 | 4 | >32 | –
4 | CCC(C)CCC(=O)N[C@H](CC(N)=O)C(=O)N[C@H](Cc1ccc(O)cc1)C(=O)N[C@H](Cc1c[nH]c2ccccc12)C(=O)N[C@H](CCCN)C(=O)N[C@@H](CCCN)C(=O)NCC(=O)N[C@H](CCCN)C(=O)N[C@@H](Cc1c[nH]c2ccccc12)C(=O)N[C@@H](CN)C(=O)N[C@H](C(=O)NCC(N)=O)[C@@H](C)CC (stereo partly shown) [Δ12LB (Dap9)-NH2 (64)] ({Hexanoyl(4ξ-Me)}-[dN][dY][dW][dOrn][Orn]G[dOrn]W[Dap]IG-NH2) | 8 | 8 | >32 | 16 | 4 | >32 | >32
5 | CC[C@H](C)[C@H](NC(=O)[C@@H](NC(=O)[C@H](Cc1c[nH]c2ccccc12)NC(=O)[C@@H](CCCN)NC(=O)CNC(=O)[C@H](CCCN)NC(=O)[C@@H](CCCN)NC(=O)[C@@H](Cc1c[nH]c2ccccc12)NC(=O)[C@@H](C)NC(=O)[C@@H](CO)NC(=O)CCCCCC(C)C)[C@@H](C)O)C(=O)N[C@@H](CC(N)=O)C(=O)NCC(=O)NCC(N)=O [LL(D-Ala2)-NH2 (30)] ({Octanoyl(7-Me)}-[dS][dA][dW][dOrn][Orn]G[dOrn]WTINGG-NH2) | 32 | 32 | >32 | >32 | 16 | >32 | –
6 | CC[C@H](C)[C@H](NC(=O)[C@@H](NC(=O)[C@H](C)NC(=O)[C@@H](CCCN)NC(=O)CNC(=O)[C@H](CCCN)NC(=O)[C@@H](CCCN)NC(=O)[C@@H](Cc1c[nH]c2ccccc12)NC(=O)[C@@H](Cc1ccc(O)cc1)NC(=O)[C@@H](CO)NC(=O)CCCCCC(C)C)[C@@H](C)O)C(=O)N[C@@H](CC(N)=O)C(=O)NCC(=O)NCC(N)=O [LL(Ala8)-NH2 (36)] ({Octanoyl(7-Me)}-[dS][dY][dW][dOrn][Orn]G[dOrn]ATINGG-NH2) | >32 | >32 | >32 | >32 | 32 | >32 | –
7 | CCC(C)CCC(=O)N[C@H](CC(N)=O)C(=O)N[C@H](Cc1ccc(O)cc1)C(=O)N[C@H](Cc1c[nH]c2ccccc12)C(=O)N[C@H](C)C(=O)N[C@@H](CCCN)C(=O)NCC(=O)N[C@H](CCCN)C(=O)N[C@@H](Cc1c[nH]c2ccccc12)C(=O)N[C@H](C(=O)N[C@H](C(=O)NCC(=O)N[C@@H](CO)C(N)=O)[C@@H](C)CC)[C@@H](C)O (stereo partly drawn) [LB(D-Ala4)-NH2 (20)] ({Hexanoyl(4ξ-Me)}-[dN][dY][dW][dA][Orn]G[dOrn]WTIGS-NH2) | >32 | >32 | >32 | 32 | 32 | >32 | –
8 | CCC(C)CCC(=O)N[C@H](CC(N)=O)C(=O)N[C@H](Cc1ccc(O)cc1)C(=O)N[C@H](Cc1c[nH]c2ccccc12)C(=O)N[C@H](CCCN)C(=O)N[C@@H](CCCN)C(=O)NCC(=O)N[C@H](CCCN)C(=O)N[C@@H](Cc1c[nH]c2ccccc12)C(=O)N[C@@H](CC(C)C)C(=O)N[C@H](C(=O)NCC(N)=O)[C@@H](C)CC (stereo partly shown) [Δ12LB (Leu9)-NH2 (53)] ({Hexanoyl(4ξ-Me)}-[dN][dY][dW][dOrn][Orn]G[dOrn]WLIG-NH2) | 4 | 4 | 4 | 4 | 8 | >32 | 8 (≈ 5.47 µM)
9 | CCC(C)CCC(=O)N[C@H](CC(N)=O)C(=O)N[C@H](Cc1ccc(O)cc1)C(=O)N[C@H](Cc1c[nH]c2ccccc12)C(=O)N[C@H](CCCN)C(=O)N[C@@H](CCCN)C(=O)NCC(=O)N[C@H](CCCN)C(=O)N[C@@H](Cc1c[nH]c2ccccc12)C(=O)N[C@@H](CC(N)=O)C(=O)N[C@H](C(=O)NCC(N)=O)[C@@H](C)CC (stereo partly shown) [Δ12LB (Asn9)-NH2 (58)] ({Hexanoyl(4ξ-Me)}-[dN][dY][dW][dOrn][Orn]G[dOrn]WNIG-NH2) | 8 | 8 | 16 | 16 | 2 | >32 | 4 (≈ 2.73 µM)
10 | CC[C@H](C)[C@H](NC(=O)[C@@H](NC(=O)[C@H](Cc1c[nH]c2ccccc12)NC(=O)[C@@H](CCCN)NC(=O)CNC(=O)[C@H](CCCN)NC(=O)[C@@H](CCCN)NC(=O)[C@@H](Cc1c[nH]c2ccccc12)NC(=O)[C@@H](Cc1ccc(O)cc1)NC(=O)[C@@H](CO)NC(=O)CCCCCC(C)C)[C@@H](C)O)C(=O)N[C@@H](C)C(=O)NCC(=O)NCC(N)=O [LL(Ala11)-NH2 (39)] ({Octanoyl(7-Me)}-[dS][dY][dW][dOrn][Orn]G[dOrn]WTIAGG-NH2) | 8 | 8 | 8 | 8 | 4 | >32 | –
11 | C=CCOC(=O)CC[C@H](NC(=O)[C@H](Cc1c[nH]c2ccccc12)NC(=O)[C@@H](CCCN)NC(=O)CNC(=O)[C@H](CCCN)NC(=O)[C@@H](CCCN)NC(=O)[C@@H](Cc1c[nH]c2ccccc12)NC(=O)[C@@H](Cc1ccc(O)cc1)NC(=O)[C@@H](CC(N)=O)NC(=O)CCC(C)CC)C(=O)N[C@H](C(=O)NCC(N)=O)[C@@H](C)CC (stereo partly shown) [Δ12LB (Glu[OAll]9)-NH2 (62)] ({Hexanoyl(4ξ-Me)}-[dN][dY][dW][dOrn][Orn]G[dOrn]WE(OAll)IG-NH2) | 8 | 4 | 4 | 8 | 2 | >32 | 4 (≈ 2.64 µM)
12 | CCC(C)CCC(=O)N[C@H](CC(N)=O)C(=O)N[C@H](Cc1ccc(O)cc1)C(=O)N[C@H](Cc1c[nH]c2ccccc12)C(=O)N[C@H](CCCN)C(=O)N[C@@H](CCCN)C(=O)NCC(=O)N[C@H](CCCN)C(=O)N[C@@H](Cc1c[nH]c2ccccc12)C(N)=O (stereo partly shown) [Δ9–12LB-NH2 (15)] ({Hexanoyl(4ξ-Me)}-[dN][dY][dW][dOrn][Orn]G[dOrn]W-NH2) | >32 | >32 | >32 | >32 | >32 | >32 | –
